This is an account of results in PMC11928319 (Nature Plants, 2025).

Where a SMILES comes first, the peptide text is derived from it. [ ]: non-standard residue; d: D form. Hyp = O=C(O)[C@@H]1C[C@@H](O)CN1

The subject of data set [1] is filter-sterile supernatant of Rhodanobacter R179 (secreted peptidase(s)). Briefly: Peptide quantification by mass spectrometry after incubation in cell-free supernatant of Rhodanobacter R179. The data set is classed as in vitro ADME. The following applies: for peptide detected by mass spectrometry after incubation in supernatant of the R179 dssAB mutant / peptide detected by mass spectrometry after incubation in supernatant of wild-type R179: 1 µM peptide, 1 h, LC-MS MS1 peak area; for peptide detected by mass spectrometry after incubation in supernatant of the R179 dssAB mutant: filter-sterile supernatant of dssAB mutant cultivated in XVM2 (OD600 = 0.4), n = 3; for peptide detected by mass spectrometry after incubation in supernatant of wild-type R179: filter-sterile supernatant of wild-type R179 cultivated in XVM2 minimal medium (OD600 = 0.4), light chamber, n = 3 culture supernatants. The protocol:
Elicitors were also supplemented into the medium prior to solidification at a final concentration of 1 µM. The flg22 ([…]) and AtPep1 ([…]) peptides were synthesized by EZbiolab. elf18^R179 (Ac-[…]) and elf18 (Ac-[…]) were synthesized by GenScript and EZbiolab, respectively. For inoculation with the bacterial supernatant, bacteria were cultivated overnight in XVM2 minimal medium (20 mM NaCl, 10 mM (NH4)2SO4, 5 mM MgSO4, 1 mM CaCl2, 0.16 mM KH2PO4, 0.32 mM K2HPO4, 0.01 mM FeSO4, 10 mM fructose, 10 mM sucrose, 0.03% Casamino acids, pH 6.7)[76] to a final concentration of OD600 = 0.4. Bacteria were pelleted by centrifugation (11,600 g, 2 min), and the supernatant was sterile-filtered using filter units with MF-Millipore membrane (0.22 µm; Millex). The supernatant was incubated in boiling water for 30 min for heat treatment. Then, 25 ml of 1× MS with 20 g l^−1 Bacto Agar was mixed with 25 ml of supernatant prior to medium solidification and poured into square petri dishes. Sterilized seeds were placed on solidified agar in square petri dishes and vertically incubated for 14 days.
Bacterial supernatants were prepared as described in ‘Agar-based cultivation of axenic plants and co-cultivation with bacteria, bacterial supernatants and elicitors’. Here, additionally, the peptides dRGF1 (DYSNPGHHP-Hyp-RHN) and PSY1 (D-Y(SO3H)-[…]-Hyp-Hyp-S) synthesized by Scilight Peptide were incubated for 1 h with 1 µM of peptides in a plant cultivation light chamber (day-light condition; see ‘Plant cultivation conditions’), and the samples were frozen at −20 °C until further processing. For the investigation of AtPep1 degradation, the AtPep1 peptide was first modified by acetylation (six to seven times). To this end, 100-µl aliquots of peptides were treated with 10 µl of NHS acetate solution (1 M NHS acetate in 50% ACN/PBS) and incubated for 30 min with shaking. The reaction was quenched by the addition of 100 µl of 100 mM Tris-HCl (pH 8.5) and incubated for 10 min. For comparison of the non-acetylated peptides with the above-described modified AtPep1 peptides, aliquots of the non-acetylated peptides were processed as described above, but without the modifying NHS reaction. To this end, 100-µl aliquots of the sample were mixed with 100 µl of PBS buffer (137 mM NaCl, 2.7 mM KCl, 10 mM Na2HPO4, 1.8 mM KH2PO4; pH 7.4). The samples were then further diluted with 100 µl of 100 mM Tris-HCl (pH 8.5) and incubated for 10 min. All samples were acidified with 5 µl of TFA and desalted using StageTips with C18 Empore disk membranes (3M)[109]. The samples were dried in a vacuum evaporator and dissolved in 10 µl of 2% ACN (0.1% TFA for analysis).
The samples were analysed using an EASY-nLC 1200 (Thermo Fisher) coupled to a QExactive Plus mass spectrometer (Thermo Fisher). Peptides were separated on 16-cm frit-less silica emitters (New Objective, 75 µm inner diameter), packed in-house with reversed-phase ReproSil-Pur C18 AQ 1.9 µm resin (Dr. Maisch). Peptides were loaded on the column and eluted for 50 min using a segmented linear gradient of 5% to 95% solvent B (0 min, 5% B; 0–5 min, 15% B; 5–35 min, 50% B; 35–45 min, 95% B; 45–50 min, 95% B) (solvent A: 0% ACN, 0.1% FA; solvent B: 80% ACN, 0.1% FA) at a flow rate of 300 nl min^−1. Mass spectra were acquired in data-dependent acquisition mode with a TOP10 method. Mass spectrometry spectra were acquired in the Orbitrap analyser with a mass range of 300–1,500 m/z at a resolution of 70,000 full width at half maximum (FWHM) and a target value of 3 × 10^6 ions. Precursors were selected with an isolation window of 1.3 m/z. Higher-energy collision dissociation (HCD) fragmentation was performed at a normalized collision energy of 25. Tandem mass spectrometry (MS/MS) spectra were acquired with a target value of 5 × 10^5 ions at a resolution of 17,500 FWHM, a maximum injection time of 85 ms and a fixed first mass of 100 m/z. […]

A short description of data set [2]: supernatant of wild-type R179 grown in XVM2 medium supplemented with 10% carbon-rich medium (tryptic soy broth). The following applies: Rhodanobacter R179, plant cultivation light chamber (day-light condition; 21 °C), up to 1 h.
A short description of data set [3]: supernatant of the R179 dssAB mutant grown in XVM2 minimal medium supplemented with 10% TSB. The following applies: Rhodanobacter R179 dssAB mutant, plant cultivation light chamber (day-light condition; 21 °C), up to 1 h.
Data set [4] is described as follows: filter-sterile supernatant of wild-type Rhodanobacter R179 cultivated in XVM2 medium (bacterial culture: OD600 = 0.4). The following applies: Rhodanobacter R179, plant cultivation light chamber (day-light condition; 21 °C), up to 1 h.
A short description of data set [5]: filter-sterile supernatant of the Rhodanobacter R179 dssAB mutant cultivated in XVM2 medium (bacterial culture: OD600 = 0.4). The following applies: plant cultivation light chamber (day-light condition; 21 °C), up to 1 h.
[6] abbreviates: R179 dssAB mutant supernatant, XVM2 medium, incubation 1h, MS1 precursor area, replicate 1.
[7] abbreviates: R179 dssAB mutant supernatant, XVM2 medium, incubation 1h, MS1 precursor area, replicate 2.
Where [8] appears, read: R179 dssAB mutant supernatant, XVM2 medium, incubation 1h, MS1 precursor area, replicate 3.
[9] abbreviates: R179 dssAB mutant supernatant, XVM2 medium, incubation 1h, peptide relative to axenic, replicate 1.
The mark [10] stands for this setting: R179 dssAB mutant supernatant, XVM2 medium, incubation 1h, peptide relative to axenic, replicate 2.
[11] abbreviates: R179 dssAB mutant supernatant, XVM2 medium, incubation 1h, peptide relative to axenic, replicate 3.
Setting [12] is: R179 wt supernatant, XVM2 medium, incubation 1h, MS1 precursor area, replicate 1.
[13] abbreviates: R179 wt supernatant, XVM2 medium, incubation 1h, MS1 precursor area, replicate 2.
The mark [14] stands for this setting: R179 wt supernatant, XVM2 medium, incubation 1h, MS1 precursor area, replicate 3.
[15] abbreviates: R179 wt supernatant, XVM2 medium, incubation 1h, peptide relative to axenic, replicate 1.
Setting [16] is: R179 wt supernatant, XVM2 medium, incubation 1h, peptide relative to axenic, replicate 2.
Where [17] appears, read: R179 wt supernatant, XVM2 medium, incubation 1h, peptide relative to axenic, replicate 3.
[18] abbreviates: axenic XVM2 medium control, incubation 1h, MS1 precursor area, replicate 1.
[19] abbreviates: axenic XVM2 medium control, incubation 1h, MS1 precursor area, replicate 2.
Where [20] appears, read: axenic XVM2 medium control, incubation 1h, MS1 precursor area, replicate 3.
Where [21] appears, read: axenic XVM2 medium control, incubation 1h, peptide relative to axenic, replicate 1.
[22] abbreviates: axenic XVM2 medium control, incubation 1h, peptide relative to axenic, replicate 2.
Setting [23] is: axenic XVM2 medium control, incubation 1h, peptide relative to axenic, replicate 3.

Regarding `N=C(N)NCCC[C@H](NC(=O)[C@@H]1C[C@@H](O)CN1C(=O)[C@@H]1CCCN1C(=O)[C@H](Cc1c[nH]cn1)NC(=O)[C@H](Cc1c[nH]cn1)NC(=O)CNC(=O)[C@@H]1CCCN1C(=O)[C@H](CC(N)=O)NC(=O)[C@H](CO)NC(=O)[C@H](Cc1ccc(O)cc1)NC(=O)[C@@H](N)CC(=O)O)C(=O)N[C@@H](Cc1c[nH]cn1)C(=O)N[C@@H](CC(N)=O)C(=O)O` [dRGF1] (H-DYSNPGHHP[Hyp]RHN-OH), the “peptide detected by mass spectrometry after incubation in supernatant of the R179 dssAB mutant” value in data set [1] is recorded as “still detected”. Also, the “peptide detected by mass spectrometry after incubation in supernatant of wild-type R179” value in data set [1] is listed as “still detected”. Also, the “Log10(total_area_MS1)” value in data set [1] (setting [6]) is 8.738; in data set [1] (setting [7]), 8.7982; in data set [1] (setting [8]), 8.898; in data set [1] (setting [12]) it was 8.685; in data set [1] (setting [13]), 8.632; in data set [1] (setting [14]) it was 8.682. Further, the “Log10(total_area_MS1)” value in data set [1] (axenic XVM2_TSB, 1h, 1 µM, LC-MS [M+2H], replicate 2) is given as 8.595; in data set [1] (axenic XVM2_TSB, 1h, 1 µM, LC-MS [M+2H], replicate 3), 8.5; in data set [1] (setting [18]), 8.337; in data set [1] (setting [19]) it was 8.259; in data set [1] (setting [20]), 8.171; in data set [1] (supernatant of wt R179 grown in XVM2_TSB, 1h, 1 µM, LC-MS [M+2H], replicate 1), 8.931. The “Log10(total_area_MS1)” value in data set [1] (supernatant of wt R179 grown in XVM2_TSB, 1h, 1 µM, LC-MS [M+2H], replicate 2) was found to be 9.001. Also, the percent_rel_axenic worked out at 299.876% in data set [1] (setting [9]); 344.476% in data set [1] (setting [10]); 433.442% in data set [1] (setting [11]); 265.464% in data set [1] (setting [15]); 235.074% in data set [1] (setting [16]); 263.706% in data set [1] (setting [17]). Also, the percent_rel_axenic amounted to 103.573% in data set [1] (axenic XVM2_TSB, 1h, 1 µM, LC-MS, relative to axenic, replicate 2); 83.3448% in data set [1] (axenic XVM2_TSB, 1h, 1 µM, LC-MS, relative to axenic, replicate 3); 119.158% in data set [1] (setting [21]); 99.6152% in data set [1] (setting [22]); 81.2268% in data set [1] (setting [23]); 225.002% in data set [1] (supernatant of wt R179 grown in XVM2_TSB, 1h, 1 µM, LC-MS, relative to axenic, replicate 1). For the same compound, in data set [1] (supernatant of wt R179 grown in XVM2_TSB, 1h, 1 µM, LC-MS, relative to axenic, replicate 2), the percent_rel_axenic was determined as 263.948%.

As to “D-Y(SO3H)-GDPSANPKHDPGV-Hyp-Hyp-S [PSY1, root-growth-promoting sulfated PSY1 peptide]”, the “peptide detected by mass spectrometry after incubation in supernatant of the R179 dssAB mutant” value in data set [1] is recorded as “still detected”. Besides, in data set [1], the “peptide detected by mass spectrometry after incubation in supernatant of wild-type R179” value is given as “still detected”. Besides, the “Log10(total_area_MS1)” value was 9.656 in data set [1] (setting [6]); 9.68 in data set [1] (setting [7]); 9.49 in data set [1] (setting [8]); 9.465 in data set [1] (setting [12]); 9.6971 in data set [1] (setting [13]); 9.627 in data set [1] (setting [14]). For the same compound, the results for the “Log10(total_area_MS1)” value in data set [1] (setting [18]), in data set [1] (setting [19]) and in data set [1] (setting [20]) were 10.5778, 10.3906 and 10.2645, respectively. Further, the percent_rel_axenic in data set [1] (setting [9]) is 16.8242%; in data set [1] (setting [10]), 17.7896%; in data set [1] (setting [11]) it was 11.4643%; in data set [1] (setting [15]) it was 10.8248%; in data set [1] (setting [16]), 18.4872%; in data set [1] (setting [17]), 15.7291%. In addition, the figures for the percent_rel_axenic in data set [1] (setting [21]), in data set [1] (setting [22]) and in data set [1] (setting [23]) were 140.453%, 91.2772% and 68.27%, respectively.

As for DYSNPGHHP-Hyp-RHN, the not cleaved entry in data set [2] is given as “peak area above 100% relative to mock (Extended Data Fig. 7d)”; in data set [3], “peak area above 100% relative to mock (Extended Data Fig. 7d)”; in data set [4], “still detected after 1 h; peak area above 100% relative to mock (Fig. 4a)”; in data set [5] it was “still detected after 1 h; peak area above 100% relative to mock (Fig. 4a)”.
